We go through three compounds from US12310970B2, “Compounds and methods for treating or preventing anterior segment ocular disorders and/or retinal degenerations” (YALE UNIVERSITY, priority 2018, dated 2025).

Common to all, as to assay type: cell-based
In experiment [1] the test system is Human iPSC-derived RPE cells. Briefly: Mitochondrial respiration (Seahorse XF) after TBHP in iPSC-derived RPE. The procedure:
Human iPSC-derived RPE cells were preincubated with 3 μM ciclopirox olamine for 18 hours, then treated with 500 μM tert-butyl hydroperoxide (TBHP) for 24 hours. Oxygen consumption rate was determined using the Seahorse XF analyzer to measure mitochondrial function. FIG. 7A depicts basal respiration. FIG. 7B depicts maximal oxygen consumption rate (OCR). FIG. 7C depicts spare respiratory capacity. FIG. 7D depicts ATP production.
Human iPSCs were derived from fibroblasts of a donor with no history of retinal disease. A skin specimen was processed as previously described. Briefly, the skin biopsy was transplanted onto a culture plate and fibroblasts were grown to confluence and then treated with four Yamanaka factors, Oct3/4, Sox-2, Klf4, and c-Myc using the CytoTune™-iPS 2.0 Sendai Reprogramming Kit according to the manufacturer's instructions (Invitrogen-Gibco, Life Technologies=) (31-36). Newly generated iPSC colonies were purified and expanded using MTeSR1™ media (Stem Cell Technologies, Vancouver, Canada).
Human iPSCs were differentiated to iPSC-derived RPE cells as previously described. Human iPSC colonies were lifted and grown as embryoid bodies (EBs) for 4 days in EB formation medium (STEMCELL Technologies). After 5 days, EB medium was replaced with neural induction medium (NIM) containing DMEM/F12 (1:1), 1% N-2 supplement (MEM non-essential amino acids and 2 μg/mL heparin) and suspended EB aggregates were plated onto laminin-coated culture plates and allowed to reattach. After 16 days, neural induction medium was replaced with retinal differentiation medium (RDM) containing DMEM/F12 (3:1), 2% B-27 supplement (Invitrogen-Gibco, Life Technologies), MEM non-essential amino acids and penicillin/streptomycin. The adherent culture was maintained in RDM until the appearance of pigmented iPSC-derived RPE cells. Patches of pigmented iPSC-derived RPE cells were then micro-dissected and cultured on Transwell® plates with RDM+10% fetal bovine serum (FBS) for 2 days and then switched to RDM with 2% FBS until the cells were confluent. Human iPSC-derived RPE cells were then maintained in RDM and allowed to form monolayers within 90 days.
(§1) Analysis of mitochondrial function was performed on live cells using XFe96 Extracellular Flux Analyzer (Seahorse Bioscience) using the cell mito stress test (CMST). Human ARPE-19 cells or iPSC-derived RPE were seeded in a 96 well plate and grown for 24 h. Cells were preincubated with compound or no compound for 24 hours and then exposed to varying concentrations of TBHP the next day for 24 hours. Cells were the washed with CMST assay medium (XF base medium DMEM supplemented with 2 mM glutamine, 5.5 mM glucose, and 1 mM sodium pyruvate, pH 7.4), and then incubated in CMST medium for 1 h at 37° C. in a non-CO2 incubator. The CMST assay protocol was performed by manufacturer guidance (Seahorse Bioscience). Oxygen consumption rate (OCR) was detected under basal conditions followed by the sequential addition of oligomycin, carbonyl cyanide 4-(trifluoromethoxy) phenylhydrazone (FCCP), as well as rotenone and antimycin A. The measured parameters include: basal respiration, adenosine triphosphate (ATP) production, maximal respiration, spare respiratory capacity.
Human iPSC-derived RPE cells were preincubated with 0.6 μM of compound 414 or compound 434 for 18 hours, then treated with 300 μM TBHP for 24 hours and oxygen consumption rate determined using the Seahorse XF analyzer.

Experiment [2] relates to Human ARPE-19 cells. Put plainly: Mitochondrial respiration (Seahorse XF, oxygen consumption rate) after TBHP in ARPE-19. The procedure: as §1
Human ARPE-19 cells were preincubated with 3 μM ciclopirox olamine for 18 hours, then treated with 500 μM TBHP for 24 hours and oxygen consumption rate determined using the Seahorse XF analyzer.
The effects of compound treatment on mitochondrial function in human RPE cells were investigated. Human ARPE-19 cells were preincubated with 0.6 μM of compound 414 or compound 434 for 18 hours, then treated with 300 μM TBHP for 24 hours and oxygen consumption rate determined using the Seahorse XF analyzer.

The subject of experiment [3] is Human ARPE-19 cells. Briefly: TBHP-induced oxidative stress cell viability assay (RealTime-Glo) in ARPE-19. The settings on record: for protection from oxidative stress-induced cell death: 0.9 μM 24 h preincubation, 400 μM TBHP 24 h; for protection from TBHP-induced cell death in screen of 65,000 compound Chemical Diversity library: initial high-throughput screening. The procedure:
Immortalized human RPE cells (ARPE-19) obtained from the American Type Culture Collection (ATCC, Manassas, VA, USA) were cultured in Dulbecco's modified Eagle's medium (DMEM; Thermo Fisher Scientific, Waltham, MA) containing 10% fetal bovine serum (FBS), 100 IU/mL penicillin, 100 μg/mL streptomycin, 100 μg/mL gentamicin, and 2.5 μg/mL amphotericin B (Thermo Fisher Scientific).
Human ARPE-19 cells were plated in 96-well plates for 24 hours in DMEM supplemented with FBS and antibiotics. ARPE-19 cells were preincubated with either ciclopirox olamine (Sigma), compound 414 (Chemical Diversity, San Diego, CA), compound 434 (Chemical Diversity) or no compound for 24 hours and then exposed to varying concentrations of tert-butyl hydroperoxide (TBHP; Sigma-Aldrich, St. Louis, MO) the next day for 24 hours. Cell viability was measured the following day by RealTime-Glo™ MT cell viability assay (Promega, Madison, WI) using a BioTek FLx800™ fluorescence reader (BioTek, Winooski, VT).
Initial screening of a library with 640 FDA-approved drugs (Enzo Life Sciences FDA-approved drug library) with known bioactivity, safety & bioavailability, and natural products was performed using TBHP, a chemical oxidizing agent, as a model of oxidative stress-induced cell death.
Initial screening of a library with 65,000 synthetic compounds (Chemical Diversity library) using tert-butyl hydroperoxide (TBHP), a chemical oxidizing agent, as a model of oxidative stress-induced cell death.

In experiment [4] the test system is Human ARPE-19 cells. Briefly: UV-B radiation damage in ARPE-19. Conditions: then 1200 mJ/cm^2 UV-B. The procedure: Human ARPE-19 cells were plated in 96-well plates for 24 hours in DMEM supplemented with FBS and antibiotics. ARPE-19 cells were preincubated with compound or no compound for 24 hours and then exposed to 1200 mJ/cm^2 ultraviolet B (UV-B) radiation in a chamber. Cell viability was measured the following day by […] MT cell viability assay (Promega) using a BioTek FLx800™ fluorescence reader (BioTek, Winooski, VT).
Human ARPE-19 cells were then preincubated with 3 μM of ciclopirox olamine for 24 hours and then exposed to 1200 mJ/cm^2 of UV-B radiation. Ciclopirox olamine protects human ARPE-19 cells exposed to 1200 mJ/cm^2 UV-B radiation (FIG. 6).
To confirm the results using TBHP, another model of oxidative stress in which human RPE cells are exposed to UV-B light was employed. […] Human ARPE-19 cells were then preincubated with 0.6 μM of compound 414 and compound 434 for 24 hours and then exposed to 1200 mJ/cm^2 of UV-B radiation. Compound 414 and compound 434 protective human ARPE-19 cells exposed to 1200 mJ/cm^2 UV-B radiation (FIG. 11).

[5] abbreviates: 3 μM 18 h, then 500 μM TBHP 24 h.
Setting [6] is: 3 μM 18 h, then 500 μM TBHP 24 h, vs TBHP-treated group.
Setting [7] is: 0.6 μM 18 h, then 300 μM TBHP 24 h.

“Also recorded” adds a separate entry of the source. Where a name gives a salt, the structure may show the parent alone.

Consider `Cc1cc(C2CCCCC2)n(O)c(=O)c1` [ciclopirox olamine, 6-cyclohexyl-1-hydroxy-4-methyl-2(1H)-pyridone, ethanolamine salt, reference compound], for which, in experiment [1] (setting [5]), the ATP production entry was “significantly increased”, the basal respiration entry is “significantly increased”, the “maximal OCR” value is on record as “significantly increased” and the reserve capacity result is “significantly increased”. Besides, in the experiment on Human ARPE-19 cells [2] (setting [6]), the ATP turnover result is listed as “significantly increased”, the basal respiration entry is “significantly increased”, the “maximal OCR” value is given as “significantly increased” and the reserve capacity result is recorded as “significantly increased”. Also, in the experiment with Human ARPE-19 cells [3] (ARPE-19, ciclopirox olamine preincubation 24 h, then TBHP 24 h (FIG. 1: 0.9 μM, 300 μM TBHP)), the “cell viability after challenge with TBHP (luminescence); protection from oxidative stress-induced cell death” value is “protects; also recorded: significantly enhances cell viability”. In addition, the “protection from TBHP-induced cell death in screen of 640 FDA-approved drug library” value in the experiment on Human ARPE-19 cells [3] (ARPE-19, initial library screening) is “significantly protects”. The “cell viability, treatment alone compared to no treatment” value in the experiment on Human ARPE-19 cells [3] (human RPE cells, ciclopirox olamine alone, no TBHP) is recorded as “significantly enhances cell viability”. In addition, the “protection from UV-B radiation damage” value in the experiment on Human ARPE-19 cells [4] (3 μM 24 h) was “protects”.

With `CCc1cccc(C)c1Nc1c(-c2cc(Br)ccc2O)nc2ncccn12` [compound 414], in experiment [1] (setting [7]), the ATP production entry is reported as “significantly increased”, the basal respiration entry is reported as “significantly increased”, the “maximal OCR” value is reported as “significantly increased” and the reserve capacity result is “significantly increased”. In the experiment with Human ARPE-19 cells [2] (setting [7]), the ATP production result is “significantly increased”, the basal respiration result is listed as “significantly increased”, the “maximal OCR” value is “significantly increased” and the reserve capacity result is “significantly increased”. Besides, in the experiment with Human ARPE-19 cells [3] (ARPE-19), the “protection from oxidative stress-induced cell death” value is reported as “Protective effects” and the “protection from TBHP-induced cell death in screen of 65,000 compound Chemical Diversity library” value is given as “significantly protects”. Further, the “cell viability after challenge with TBHP (luminescence); protection from oxidative stress-induced cell death” value in the experiment with Human ARPE-19 cells [3] (ARPE-19, compound preincubation, TBHP 24 h (FIG. 8: 0.6 μM, 300 μM TBHP)) is “protects; also recorded: significantly enhances cell viability”. For the same compound, the “protection from UV-B radiation damage” value in the experiment on Human ARPE-19 cells [4] (0.6 μM 24 h) was “protective”.

In the case of `CCc1cccc(C)c1Nc1c(-c2cc(Br)ccc2O)nc2nc(C)cc(C)n12` [compound 434], in experiment [1] (setting [7]), the ATP production result was “significantly increased” and the basal respiration entry is “significantly increased”. In the experiment on Human ARPE-19 cells [2] (setting [7]), the ATP production entry was “significantly increased”, the basal respiration entry is given as “significantly increased”, the “maximal OCR” value is recorded as “significantly increased” and the reserve capacity entry is on record as “significantly increased”. Also, in the experiment with Human ARPE-19 cells [3] (ARPE-19), the “protection from oxidative stress-induced cell death” value is “Protective effects” and the “protection from TBHP-induced cell death in screen of 65,000 compound Chemical Diversity library” value was “significantly protects”. Further, the “protection from UV-B radiation damage” value with Human ARPE-19 cells [4] (0.6 μM 24 h) is “protective”.
